According to PubChem BioAssay (NCI):
Where “and” joins values, the source holds several entries; their conditions need not be identical. Equal entries are not always repeated.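 96-well plates; 48 h exposure; 5 concentrations. Endpoints by linear interpolation between flanking doses. Not reached: highest tested concentration assigned. Here, GI50 denotes the concentration required for 50% inhibition of growth. TGI is the concentration that stops growth completely.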

Key:
Experiment in all cases: NCI anticancer screen, dose series, 48 h
[1] = tested on: HS 578T breast
[2] = tested on: SF-539 CNS
[3] = tested on: OVCAR-5 ovarian
[4] = tested on: DU-145 prostate
[5] = tested on: SF-268 CNS
[6] = tested on: IGROV1 ovarian
[7] = tested on: HL-60(TB) leukemia
[8] = tested on: HCT-116 colon
[9] = tested on: NCI-H460 lung
[10] = tested on: MDA-MB-435

| Structure (SMILES) | GI50 [1] | TGI [1] | GI50 [2] | TGI [2] | GI50 [3] | TGI [3] | GI50 [4] | TGI [4] | GI50 [5] | TGI [5] | GI50 [6] | TGI [6] | GI50 [7] | TGI [7] | GI50 [8] | TGI [8] | GI50 [9] | TGI [9] | GI50 [10] | TGI [10] |
| --- | --- | --- | --- | --- | --- | --- | --- | --- | --- | --- | --- | --- | --- | --- | --- | --- | --- | --- | --- | --- |
| Oc1ccc2ccccc2c1N=Nc1ccccn1 | 7520 nM | > 52800 nM | 1600 nM | > 28400 nM | 4000 nM | > 100000 nM | 1830 nM | > 100000 nM | 554 nM | > 100000 nM | 349 nM | 8140 nM | 469 nM | 3230 nM | 277 nM | 2770 nM | 532 nM | 5490 nM | 2110 nM | > 100000 nM |
| Clc1ccc2c(NCCNc3ccnc4cc(Cl)ccc34)ccnc2c1 | – | > 100000 nM | – | 25300 nM | – | 33300 nM | – | 48200 nM | – | 70600 nM | – | 36600 nM | – | 31000 nM | – | 33100 nM | – | 27000 nM | – | 32000 nM |
| CCOC(=O)c1c(C)[nH]c(/C=C2\N=C(c3ccc[nH]3)C=C2OC)c1C | 57.7 nM | 925 nM | 60.6 nM | 1280 nM | 40.4 nM | 1510 nM | 37.2 nM | 1600 nM | – | – | 30.5 nM | 1090 nM | 23.2 nM | 442 nM | < 10.7 nM | – | – | – | 18.6 nM | 1150 nM |
| COc1cc2cc(C(=O)N3CC(CCl)c4c3cc(N(C)C)c3ccccc43)[nH]c2c(OC)c1OC (stereo not given) | – | 135 nM | – | 13.2 nM | – | 39 nM | – | 492 nM | – | 16 nM | – | – | – | – | – | > 100000 nM | – | – | – | – |
| COc1ccc(Cl)cc1NC(=O)c1c(NC(=O)C(F)(F)C(F)(F)F)sc2c1CCCCC2 | 1370 nM | 7540 nM | – | – | 2610 nM | > 100000 nM | 2720 nM | > 100000 nM | 1090 nM | > 100000 nM | 2810 nM | > 100000 nM | 2130 nM | 6630 nM | 1300 nM | 5670 nM | – | – | 2520 nM | > 100000 nM |
| COc1cccc2c1C(=O)c1c(O)c3c(c(O)c1C2=O)C[C@@](O)(/C(C)=N/NC(=O)c1ccccc1)C[C@@H]3OC1CC(N)C(O)C(C)O1 (stereo not given in full) | – | 1820 nM | – | 1580 nM | – | 4730 nM | – | 903 nM | – | 3350 nM | – | 6350 nM | – | 771 nM | – | 10200 nM | – | 3550 nM | – | 2150 nM |
| COC(=O)c1cc2c3c(cc(O)c2[nH]1)N(C(=O)C1Cc2cc(OC)c(OC)c(OC)c2N1)CC3CCl (stereo not given) | – | – | < 10 nM | < 10 nM | – | – | < 10 nM | 106 nM | < 10 nM | 646 nM | < 10 nM | 980 nM | < 10 nM | 10.2 nM | – | – | < 10 nM | 175 nM | – | – |
| NC(Cc1c[nH]c2ccccc12)C(=O)O (stereo not given) | – | – | – | > 300000 nM | – | > 300000 nM | – | – | – | > 300000 nM | – | > 300000 nM | – | > 300000 nM | – | > 300000 nM | – | > 300000 nM | – | – |
| Nc1nc(N)c2nc(-c3ccco3)cnc2n1 | – | – | – | > 100000 nM | – | > 100000 nM | – | – | – | > 100000 nM | – | > 100000 nM | – | 89600 nM | – | > 100000 nM | – | > 100000 nM | – | – |
| O=C1C=C(N2CC2)C(=O)C=C1N1CC1 | – | 8140 nM | 22.1 nM | 267 nM and 268 nM | 78.4 nM | 366 nM and 2200 nM | 10.9 nM | – | 10.9 nM | 299 nM and 1500 nM | – | 2480 nM | 2.33 nM | 510 nM and 197 nM | – | – | 5.21 nM | 200 nM and 781 nM | 20.6 nM | – |
| CC[C@@]1(O)C(=O)OCc2c1cc1n(c2=O)Cc2c-1nc1ccccc1c2/C=N\NC(=O)C(N)Cc1cnc[nH]1 (stereo not given in full) | – | > 100000 nM | – | 538 nM | – | > 54600 nM | – | > 100000 nM | – | > 25800 nM | – | > 54700 nM | – | – | – | > 41400 nM | – | 4800 nM | – | > 85900 nM |
| COc1ccc(CCCC(=O)O)c(C)c1 | – | > 100000 nM | – | – | – | > 100000 nM | – | 56600 nM | – | > 100000 nM | – | > 100000 nM | – | > 100000 nM | – | > 100000 nM | – | > 100000 nM | – | > 100000 nM |
